Results taken from patent US5407940A, “New ellipticine compounds” (priority 1992, dated 1995).
Like-named read-outs stand apart in the source and are kept apart here.

Legend:
[1] = test system: Lewis pulmonary carcinoma; test: Anti-tumour activity against Lewis pulmonary carcinoma; format: in vivo, female B6D2F1 mice; conditions: for Survivors on d90 / median T/C (survival) / median T/C (volume) d20: i.v., d3, d6, d9; for activity against this very resistant model (in words): adriamycin at the maximum tolerated dose
L1210 = test: Cytotoxicity, line L1210 (Microculture Tetrazolium Assay); format: cell-based, murine; conditions: for IC50: Mus musculus, L1210, 48 h, read-out: Cytotoxicity IC50, line L1210
From the text: (§1) The cells are distributed on microplates and exposed to the cytotoxic compounds.

P388 = test: Cytotoxicity, sensitive line P388 (Microculture Tetrazolium Assay); format: cell-based, murine; conditions: Mus musculus, P388, 48 h, read-out: Cytotoxicity IC50, sensitive P388
From the text: as §1

KB-A1 [2] = test: cells; conditions: Homo sapiens, KB-A1, 96 h, read-out: Cytotoxicity IC50, resistant KB-A1
M5076 sarcoma = test: Anti-tumour activity against M5076 sarcoma; format: in vivo, female B6D2F1 mice; conditions: for Survivors on d90 / median T/C (survival): i.p., d1, d5, d9, d13
Protocol: (§2) M5076 sarcoma is supplied by NCI (Frederick, USA). The tumour cells (10^7 cells/animal) were inoculated on d0 into the peritoneal cavity of female B6D2F1 mice. The compounds were administered by the i.p. route on d1, d5, d9 and d13 at the doses indicated. The surviving animals on d90 were recorded and the T/C survival (%) was calculated.

leukaemia P388 [3] = conditions: mouse, in vivo
colon 38 = test: Anti-tumour activity against colon 38; format: in vivo, female B6D2F1 mice; conditions: i.v., d2 and d9, d25
Protocol: Colon 38 (supplied by NCI, Frederick, USA) was inserted in the form of fragments by the subcutaneous route into female B6D2F1 mice. The compounds were administered by the i.v. route on d2 and d9 and the anti-tumour activity was determined on […] by measuring the tumour volume (T/C volume, %).

leukaemia P388 [4] = test: Anti-tumour activity against leukaemia P388 in vivo; conditions: for Survivors on d60/total no. of mice / T/C: intraperitoneal, day 1; for cures, treated mice (comparators): reference compounds, dose not given
KB-3-1 = test: Cytotoxicity, sensitive line KB-3-1; format: cell-based; conditions: Homo sapiens, KB 3-1, 96 h, read-out: Cytotoxicity IC50, sensitive KB-3-1
From the text: as §1

S1 = test: Cytotoxicity, sensitive line S1; format: cell-based; conditions: Homo sapiens, 96 h, read-out: Cytotoxicity IC50, sensitive S1
From the text: as §1

P388/VCR-20 [5] = test: cells; conditions: Mus musculus, P388, 48 h, read-out: Cytotoxicity IC50, resistant P388/VCR-20
[6] = Anti-tumour activity against M5076 sarcoma; format: in vivo, female B6D2F1 mice; conditions: mouse, in vivo, ip; read-out: maximum tolerated dose
Protocol: as §2

KB-A1 [7] = test system: KB-A1
S1/tMDR [8] = test: cells; conditions: Homo sapiens, 96 h, read-out: Cytotoxicity IC50, resistant S1/tMDR
P388/VCR-20 [9] = test system: P388/VCR-20
S1/tMDR [10] = test system: S1/tMDR
[11] = maximum tolerated dose (2 mg/kg)

COc1cccc2c1C(=O)c1c(O)c3c(c(O)c1C2=O)C[C@@](O)(C(=O)CO)C[C@@H]3O[C@H]1C[C@H](N)[C@H](O)[C@H](C)O1 [ADR, adriamycin, reference compound]
Survivors on d90 ([1]; 5 mg/kg): 2/10 | median T/C (survival) ([1]; 5 mg/kg): 125% | median T/C (volume) d20 ([1]; 5 mg/kg): 44% | Survivors on d90 ([1]; 10 mg/kg): 3/10 | median T/C (survival) ([1]; 10 mg/kg): 128% | median T/C (volume) d20 ([1]; 10 mg/kg): 1% | Survivors on d90 ([1]; 2,5 mg/kg): 0/10 | median T/C (survival) ([1]; 2,5 mg/kg): 108% | median T/C (volume) d20 ([1]; 2,5 mg/kg): 63% | activity against this very resistant model (in words) [1]: far less active | IC50 (L1210): 26.4 nM | IC50 (P388): 20 nM | IC50 (KB-A1 [2]): 6870 nM | Survivors on d90 (M5076 sarcoma; 5 mg/kg): 4/10 | median T/C (survival) (M5076 sarcoma; 5 mg/kg): 320% | gravimetric variation (leukaemia P388 [3]): -0.7 g | median T/C (tumour volume) (colon 38; 15 mg/kg): 0% | Survivors on d60/total no. of mice (leukaemia P388 [4]; 10 mg/kg): 2/10 | T/C (leukaemia P388 [4]; 10 mg/kg): 290% | cures, treated mice (comparators) (leukaemia P388 [4]): 2 | IC50 (KB-3-1): 5 nM | IC50 (S1): 36 nM | IC50 (P388/VCR-20 [5]): 340 nM

Cc1c2cc[n+](C)cc2c(C)c2c1[nH]c1ccc(O)cc12 [elliptinium acetate, reference compound]
IC50 (L1210): 139 nM | IC50 (KB-A1 [2]): 4320 nM | Survivors on d90 (M5076 sarcoma; 1 mg/kg): 1/10 | median T/C (survival) (M5076 sarcoma; 1 mg/kg): 153% | Survivors on d90 (M5076 sarcoma; 2 mg/kg): 0/10 | median T/C (survival) (M5076 sarcoma; 2 mg/kg): 180% | activity against that tumour (in words) (M5076 sarcoma; [11]): not very active | survivors (M5076 sarcoma; [11]): no animal has survived | MTD [6]: 2 mg/kg | Survivors on d60/total no. of mice (leukaemia P388 [4]; 5 mg/kg): 0/10 | T/C (leukaemia P388 [4]; 5 mg/kg): 171% | gravimetric variation (leukaemia P388 [4]; at the optimum dose used, equitoxic doses): -4 g | toxic at dose and above (leukaemia P388 [4]; mouse, in vivo): ≥ 5 mg/kg | cures, treated mice (comparators) (leukaemia P388 [4]): none | IC50 (KB-3-1): 226 nM | resistance factor (KB-A1 [7]): 19

Cc1c2ccnc(C(=O)NCCN(C)C)c2cc2c3cc(O)ccc3n(C)c12 [Example 1, 1-(N,N-Dimethylaminoethylaminocarbonyl)-5,6-dimethyl-9-hydroxy-6H-pyrido[4,3-b]carbazole]
Survivors on d90 ([1]; 20 mg/kg): 6/10 | median T/C (survival) ([1]; 20 mg/kg): > 300% | median T/C (volume) d20 ([1]; 20 mg/kg): 1% | curative for % of the animals ([1]; 40 mg/kg): 100% | Survivors on d90 ([1]; 40 mg/kg): 10/10 | median T/C (survival) ([1]; 40 mg/kg): > 300% | median T/C (volume) d20 ([1]; 40 mg/kg): 0% | Survivors on d90 ([1]; 60 mg/kg): 6/10 | median T/C (survival) ([1]; 60 mg/kg): > 300% | median T/C (volume) d20 ([1]; 60 mg/kg): 0% | activity against this very resistant model (in words) [1]: very active | times more cytotoxic than adriamycin (L1210; L1210): approximately 9 times | times more cytotoxic than elliptinium acetate (L1210; L1210): ~46 times | IC50 (L1210; 2 days incubation): 2.6 nM | IC50 (P388; 2 days incubation): 5 nM | IC50 (KB-A1 [2]): 120 nM | Survivors on d90 (M5076 sarcoma; 5 mg/kg): 0/10 | median T/C (survival) (M5076 sarcoma; 5 mg/kg): 168% | Survivors on d90 (M5076 sarcoma; 10 mg/kg): 4/10 | median T/C (survival) (M5076 sarcoma; 10 mg/kg): 301% | activity against that tumour (in words) (M5076 sarcoma; 20 mg/kg): very active | Survivors on d90 (M5076 sarcoma; 20 mg/kg): 6/10 | median T/C (survival) (M5076 sarcoma; 20 mg/kg): > 352% | median T/C (tumour volume) (colon 38; 20 mg/kg): 41% | median T/C (tumour volume) (colon 38; 40 mg/kg): 16% | median T/C (tumour volume) (colon 38; 60 mg/kg): 0% | Survivors on d60/total no. of mice (leukaemia P388 [4]; 5 mg/kg): 1/10 | T/C (leukaemia P388 [4]; 5 mg/kg): 163% | Survivors on d60/total no. of mice (leukaemia P388 [4]; 10 mg/kg): 1/10 | T/C (leukaemia P388 [4]; 10 mg/kg): 183% | Survivors on d60/total no. of mice (leukaemia P388 [4]; 20 mg/kg): 2/10 | T/C (leukaemia P388 [4]; 20 mg/kg): 220% | Survivors on d60/total no. of mice (leukaemia P388 [4]; 30 mg/kg): 3/10 | T/C (leukaemia P388 [4]; 30 mg/kg): 200% | Survivors on d60/total no. of mice (leukaemia P388 [4]; 60 mg/kg): 3/10 | T/C (leukaemia P388 [4]; 60 mg/kg): 257% | long-term survivors over all doses employed (leukaemia P388 [4]; all doses employed): all the doses employed giving long-term survivors | cures, treated mice (leukaemia P388 [4]; single administration of 30 mg/kg): 7 out of 10 | IC50 (S1/tMDR [8]): 25 nM | resistance factor (P388/VCR-20 [9]; P388/VCR-20 vs P388): 0,8 | sensitivity of resistant line P388/VCR-20 relative to corresponding sensitive line (P388/VCR-20 [9]; vs P388): more sensitive | IC50 (KB-3-1; 4 days incubation): 12 nM | resistance factor (S1/tMDR [10]; S1/tMDR vs S1): 0,5 | sensitivity of resistant line S1/tMDR relative to corresponding sensitive line (S1/tMDR [10]; vs S1): more sensitive | IC50 (S1; 4 days incubation): 49 nM | resistance factor (KB-A1 [7]; KB-A1 vs KB-3-1): 10 | IC50 (P388/VCR-20 [5]): 4 nM
